Where two headings read alike, the source gives them in different places.
Columns and labels:
Assay type in all cases: cell-based
HIV-1 clinical isolate 2 = experiment: PI sensitivity of PI-resistant clinical isolate 2 in PHA-PBMC, p24; details: for IC50: Human immunodeficiency virus 1, isolate 2: L10I, I15V, K20R, N36I, H46L, I54V, K55R, I62V, L63P, K70D, V82A, L89N, PHA-PBMC, p24; for FOLD CHANGE of IC50: isolate 2 compared to HIV-1wt (HIV-1ERS104pre)
HIV-1 clinical isolate 6 = experiment: PI sensitivity of PI-resistant clinical isolate 6 in PHA-PBMC, p24; details: for IC50: Human immunodeficiency virus 1, isolate 6: L10I, K14R, B41K, H46L, I54V, L63P, A71V, V82A, L90M, I93L, PHA-PBMC, p24; for FOLD CHANGE of IC50: isolate 6 compared to HIV-1wt (HIV-1ERS104pre)
HIV-1NL4-3 = details: for FOLD CHANGE of IC50: HIV-1NL4-3, reference (=1); for IC50: Human immunodeficiency virus 1, MT2, 168 h, HIV-1NL4-3 (wild type), MT-2 cells, MTT assay, day 7
HIV-2EHO = experiment: Drug sensitivity of HIV-2EHO in MT-2 cells, MTT assay; details: Human immunodeficiency virus 2, MT2, 168 h, HT-2 (footnote: MT-2 cells), day 7, read-out: MEAN IC50 (μM) ± SDs
Method: (§1) The sensitivities of HIV-1LAI, HIV-1Ba-L, HIV-2EHO and the primary HIV-1 isolates against various drugs were determined as previously described with minor modifications (Shiraska et al., Proc. Natl. Acad. Sci. USA, 92, 2398-2402 (1995)).

[1] = tested on: highly cross-resistant HIV-1 strains derived from AIDS patients; details: for antiviral activity against patient isolates with multiple mutations compared with wild type HIV strains (in words): multidrug resistant patient isolates
HIV-1Ba-L = experiment: microbe, parasite or virus in culture; details: Human immunodeficiency virus 1, 168 h, PBNC (PHA-PBMC), p24 production, day 7, read-out: MEAN IC50 (μM) ± SDs
Method: as §1

HIV-1LAI = experiment: microbe, parasite or virus in culture; details: day 7, read-out: MEAN IC50 (μM) ± SDs
Method: as §1

[2] = tested on: HIV-1ERS104pre (wild-type clinical strain); experiment: PI sensitivity of wild-type clinical isolate in PHA-PBMC, p24; details: for IC50: Human immunodeficiency virus 1, read-out: IC50 μM; for FOLD CHANGE of IC50: wild type HIV-1ERS104pre, reference (=1)
HIV-1 clinical isolate 8 = experiment: PI sensitivity of PI-resistant clinical isolate 8 in PHA-PBMC, p24; details: for IC50: Human immunodeficiency virus 1, isolate 8: L10R, H37D, N46I, I62V, L63P, A71V, G73S, V77I, V82T, L90M, I93L, PHA-PBMC, p24; for FOLD CHANGE of IC50: isolate 8 compared to HIV-1wt (HIV-1ERS104pre)
HIV-1APV-P30 = experiment: PI sensitivity of APV-selected HIV-1APV-P30 in MT-2 cells, MTT assay; details: for FOLD CHANGE of IC50: HIV-1APV-P30 compared to HIV-1NL4-3 (wild type); for IC50: Human immunodeficiency virus 1, MT2, 168 h
HIV-1UIC-P62 = experiment: PI sensitivity of compound 1-selected HIV-1UIC-P62 in MT-2 cells, MTT assay; details: Human immunodeficiency virus 1, MT2, 168 h, HIV-1UIC-P62 (L10F, A28S, M46I, I50V, A71V, N88D), day 7
HIV-1 clinical isolate 7 = experiment: PI sensitivity of PI-resistant clinical isolate 7 in PHA-PBMC, p24; details: for IC50: Human immunodeficiency virus 1, isolate 7: L10I, L24I, L33F, E35D, H36I, H37S, N46L, I54V, R57K, I62V, L63P, A71V, G73S, V82A, PHA-PBMC, p24; for FOLD CHANGE of IC50: isolate 7 compared to HIV-1wt (HIV-1ERS104pre)
HIV-1 clinical isolate 3 = experiment: PI sensitivity of PI-resistant clinical isolate 3 in PHA-PBMC, p24; details: for IC50: Human immunodeficiency virus 1, isolate 3: L10I, I15V, E35D, N37E, K45R, I54V, L63P, A71V, V82I, L90N, I93L, C95F, PHA-PBMC, p24; for FOLD CHANGE of IC50: isolate 3 compared to HIV-1wt (HIV-1ERS104pre)
HIV-1 clinical isolate 4 = experiment: PI sensitivity of PI-resistant clinical isolate 4 in PHA-PBMC, p24; details: for IC50: Human immunodeficiency virus 1, isolate 4: L10I, V11I, T12E, I15V, L19I, B41K, H46L, L63P, A71T, V82A, L90M, PHA-PBMC, p24; for FOLD CHANGE of IC50: isolate 4 compared to HIV-1wt (HIV-1ERS104pre)
HIV-1 clinical isolate 1 = experiment: PI sensitivity of PI-resistant clinical isolate 1 in PHA-PBMC, p24; details: for IC50: Human immunodeficiency virus 1, isolate 1: L10I, K14R, L33I, N36I, H46I, F53L, K55R, I62V, L63P, A71V, G73S, V82A, L90M, I93L, PHA-PBMC, p24; for FOLD CHANGE of IC50: isolate 1 compared to HIV-1wt (HIV-1ERS104pre)
HIV-1 clinical isolate 5 = experiment: PI sensitivity of PI-resistant clinical isolate 5 in PHA-PBMC, p24; details: for IC50: Human immunodeficiency virus 1, isolate 5: L10I, K43T, N46L, I54L, L63P, A71T, V82A, L90N, D92K, PHA-PBMC, p24; for FOLD CHANGE of IC50: isolate 5 compared to HIV-1wt (HIV-1ERS104pre)
[3] = Human immunodeficiency virus 1, 168 h, PBMC (PHA-PBMC), p24 production
[4] = Human immunodeficiency virus 1, MT2, 168 h, HT-2 (footnote: MT-2 cells), MTT assay

Structure (SMILES)	IC50 (HIV-1 clinical isolate 2) [µM]	FOLD CHANGE of IC50 (HIV-1 clinical isolate 2)	IC50 (HIV-1 clinical isolate 6) [µM]	FOLD CHANGE of IC50 (HIV-1 clinical isolate 6)	FOLD CHANGE of IC50 (HIV-1NL4-3)	IC50 (HIV-1NL4-3) [µM]	IC50 (HIV-2EHO) [µM]	antiviral activity against patient isolates with multiple mutations compared with wild type HIV strains (in words) [1]	IC50 (HIV-1Ba-L) [µM]	IC50 (HIV-1LAI; [3]) [µM]	IC50 (HIV-1LAI; [4]) [µM]	IC50 [2] [µM]	FOLD CHANGE of IC50 [2]	IC50 (HIV-1 clinical isolate 8) [µM]	FOLD CHANGE of IC50 (HIV-1 clinical isolate 8)	FOLD CHANGE of IC50 (HIV-1APV-P30)	IC50 (HIV-1APV-P30) [µM]	IC50 (HIV-1UIC-P62) [µM]	IC50 (HIV-1 clinical isolate 7) [µM]	FOLD CHANGE of IC50 (HIV-1 clinical isolate 7)	also measured
CC(C)c1nc(CN(C)C(=O)N[C@H](C(=O)N[C@@H](Cc2ccccc2)C[C@H](O)[C@H](Cc2ccccc2)NC(=O)OCc2cncs2)C(C)C)cs1 [RTV, Ritonavir]	> 1	(>23) fold	> 1	(>23) fold	(1) fold	0.038	0.35 ± 0.025	dramatically less potent	0.038 ± 0.02	0.04 ± 0.008	0.041 ± 0.005	0.044	(1) fold	> 1	(>23) fold	(>26) fold	> 1	0.055	> 1	(>23) fold	IC50 (HIV-1 clinical isolate 3): > 1 µM; FOLD CHANGE of IC50 (HIV-1 clinical isolate 3): (>23) fold; IC50 (HIV-1 clinical isolate 4): > 1 µM; FOLD CHANGE of IC50 (HIV-1 clinical isolate 4): (>23) fold; IC50 (HIV-1 clinical isolate 1): > 1 µM; FOLD CHANGE of IC50 (HIV-1 clinical isolate 1): (>23) fold; IC50 (HIV-1 clinical isolate 5): > 1 µM; FOLD CHANGE of IC50 (HIV-1 clinical isolate 5): (>23) fold
CC(C)(C)NC(=O)[C@@H]1C[C@@H]2CCCC[C@@H]2CN1C[C@@H](O)[C@H](Cc1ccccc1)NC(=O)[C@H](CC(N)=O)NC(=O)c1ccc2ccccc2n1 [SQV, Saquinavir]	0.037	(4) fold	0.19	(19) fold	(1) fold	0.019	0.004 ± 0.0005	dramatically less potent	0.014 ± 0.01	0.011 ± 0.005	0.023 ± 0.002	0.03	(1) fold	0.042	(4) fold	(2) fold	0.035	0.01	0.12	(12) fold	level of resistance (fold), range over the isolates ([1]; compared to wild-type clinical strain HIV-1ERS104pre): 3-31 fold; IC50 (HIV-1 clinical isolate 3): 0.036 µM; FOLD CHANGE of IC50 (HIV-1 clinical isolate 3): (4) fold; IC50 (HIV-1 clinical isolate 4): 0.033 µM; FOLD CHANGE of IC50 (HIV-1 clinical isolate 4): (3) fold; IC50 (HIV-1 clinical isolate 1): 0.27 µM; FOLD CHANGE of IC50 (HIV-1 clinical isolate 1): (27) fold; IC50 (HIV-1 clinical isolate 5): 0.31 µM; FOLD CHANGE of IC50 (HIV-1 clinical isolate 5): (31) fold
